In the assay the target is Thymidine kinase (Human herpesvirus 1). The assay is described as follows: Binding affinity constant against HSV-1 thymidine kinase.

The Ki is the dissociation constant of the complex between target and ligand, obtained from inhibition or displacement. High values mean a looser hold on the target, low ones a stronger hold on the target. `O=c1[nH]c(=O)n([C@H]2C[C@H](O)[C@]3(CO)C[C@H]23)cc1C=CBr` [5-((E)-2-Bromo-vinyl)-1-((1R,3S,4S,6S)-4-hydroxy-5-hydroxymethyl-bicyclo[3.1.0]hex-2-yl)-1H-pyrimidine-2,4-dione] registered a Ki of 62.9 µM.

The record behind these values is BindingDB's records for doi:10.1021/jm030241s (National Cancer Institute-Frederick, 2003).
